# Patent US20110008463A1, “COMBINATIONS OF HYDROXYPYRION COMPOUNDS AND SILVER COMPOUNDS” (priority 2008, published 2011)
# Assays:
# Chaetomium globosum = assay: Poison Plate Assay (fungi, Glucose Agar); type: cell-based; details: Chaetomium globosum ATCC6205, ppm total active ingredient, 27° C., growth evaluated after two weeks, label = % (I-e) + % nano-silver
# Protocol: (§1) Test models: • Fungi: to each well of a 24-well microtiter plate, 1000 μl of Glucose Agar (GA: 10 g glucose, 1.5 g K2HPO4, 2 g KH2PO4, 1 g (NH4)2SO4, 0.5 g MgSO4 and 12.5 g agar in 1 liter deionised water) containing the appropriate combination of the test compounds in one of the concentrations of a dose series is added. The nutrient medium is inoculated with the test fungi by adding a spore/mycelium suspension (10 μl) or a small piece of agar from the margin of an actively growing colony and incubated under dark at 27° C. with 70% relative humidity. The growth of the fungi is evaluated after two weeks. • Glucose agar is used here instead of PDA (Potato Dextrose Agar), as an alternative, poorer medium for the fungi, in order to increase the chances of detecting activity in compounds whose mode of action might be circumvented by fungi on a […]). Moreover, a richer organic medium has more potential to complex and inactivate antibacterial silver ions (Lasater et al. 1999, Weissbuch et al. 2002). • Bacteria : to each well of a 24-well microtiter plate, 1000 μL Tryptose Agar (TA, 20 g bacto tryptose agar, 5 g sodium chloride, 1 g bacto dextrose and 15 g agar in l liter deionised water), containing the test compounds in one of the concentrations of a dose series is added. […] Growth is evaluated after five days. […]
# Ulocladium atrum = assay: Poison Plate Assay (fungi, Glucose Agar); type: cell-based; details: Ulocladium atrum IMI214699a, ppm total active ingredient, 27° C., growth evaluated after two weeks, label = % (I-e) + % nano-silver
# Protocol: as §1
compound,measurement,setting,value
"Cc1cc(CC(C)CC(C)(C)C)n(O)c(=O)c1.NCCO (centres unmarked) [100 + 0, piroctone olamine]",MIC-values (minimum inhibitory concentration) in ppm,Chaetomium globosum,3.16 ppm
same,MIC-values (minimum inhibitory concentration) in ppm,Ulocladium atrum,3.16 ppm
